How the values were obtained:
[1] = molecular target: T1, human KDR (Homo sapiens, UniProt P35968); experiment: Inhibitory activity against KDR phosphorylation by ELISA; assay type: cell-based; settings: NIH 3T3 cells transfected with human KDR, VEGF 100 ng/ml
T1 construct: expressed in transfected cells; host or cells: NIH 3T3 cells (Sawano A et al., Cell Growth & Differentiation 7, 213-221 (1996))
Description: Measurement of Inhibitory Activity Against KDR Phosphorylation by ELISA
NIH 3T3 cells (Sawano A et al., Cell Growth & Differentation, 7, 213–221 (1996), “Flt-1 but not KDR/Flk-1 tyrosine kinase is a receptor for placenta growth factor, which is related to vascular endothelial growth factor”) prepared by transfection of human KDR were cultured in a DMEM medium containing 10% fetal calf serum (purchased from GIBCO BRL) within a 5% carbon dioxide incubator until 50 to 70% confluent. The harvested cells were inoculated into wells, containing the same medium, in a collagen-type one-coat 96-well flat-bottom plate in an amount of 1.5×10^4 per well, followed by cultivation at 37° C. overnight. The medium was then replaced by a DMEM medium containing 0.1% fetal calf serum. A solution of the test compound in dimethyl sulfoxide was added to each well, and the cultivation was continued at 37° C. for additional one hr. A human recombinant vascular endothelial growth factor (hereinafter abbreviated to “VEGF”) was added to a final concentration of 100 ng/ml, and the stimulation of cells was carried out at 37° C. for 2 min. The medium was removed, the cells were washed with phosphate buffered saline (pH 7.4), and 50 μl of a solubilization buffer (20 mM HEPES (pH 7.4), 150 mM NaCl, 0.2% Triton X-100, 10% glycerol, 5 mM sodium orthovanadylate, 5 mM disodium ethylenediaminetetraacetate, and 2 mM Na4P2O7) was then added thereto. The mixture was shaken at 4° C. for 2 hr to prepare a cell extract.
Separately, phosphate buffered saline (50 μl, pH 7.4) containing […] of anti-phospho-tyrosine antibody (PY20; purchased from Transduction Laboratories) was added to a microplate for ELISA (Maxisorp; purchased from NUNC), followed by standing at 4° C. overnight to form a solid phase on the wells. After washing of the plate, 300 μl of a blocking solution was added, followed by standing at room temperature for 2 hr to perform blocking. After washing, the whole quantity of the cell extract was transferred to the wells, and the plate was then allowed to stand at 4° C. overnight. After washing, an anti-KDR antibody (purchased from Santa Cruz) was allowed to react at room temperature for one hr, and, after washing, a peroxidase-labeled anti-rabbit Ig antibody (purchased from Amersham) was allowed to react at room temperature for one hr. After washing, a chromophoric substrate for peroxidase (purchased from Sumitomo Bakelite Co., Ltd.) was added thereto to initiate a reaction. After a suitable level of color development, a reaction termination solution was added to stop the reaction, and the absorbance at 450 nm was measured with a microplate reader. The KDR phosphorylation activity for each well was determined by presuming the absorbance with the addition of VEGF and without the addition of the medicament to be 100% KDR phosphorylation activity and the absorbance without the medicament and VEGF to be 0% KDR phosphorylation activity. The concentration of the test compound was varied on several levels, the inhibition (%) of KDR phosphorylation was determined for each case, and the concentration of the test compound necessary for inhibiting 50% of KDR phosphorylation (IC50) was calculated.

[2] = tested on: Human glioma cells GL07; experiment: Antitumor effect on human glioma cells (GL07) transplanted into nude mice; assay type: in vivo; settings: GL07, oral, 20 mg/kg once a day for 9 days; for inhibition in vivo at 20 mg/kg: Mus musculus, Glioma cell, 216 h, read-out: TGIR, % (tumor growth inhibition rate)
Description: Antitumor Effect on Human Glioma Cells (GL07)
Human glioma cells GL07 (obtained from Central Laboratories for Experimental Animals) were transplanted into nude mice. When the tumor volume became about 100 mm^3, the mice were grouped. In this case, grouping was carried out so that each group consisted of four mice and the average tumor volume was even among the groups. The test compound was orally or intraperitoneally administered at a dose of 20 mg/kg to the test groups every day once a day for 9 days, while the medium was administered to the control group in the manner as in the test groups. The tumor growth inhibition rate (TGIR) was calculated as follows: The tumor growth inhibition rate (TGIR)=(1−Tx/Cx)×100 wherein Cx represents the volume of tumor at day x for the control group when the tumor volume at the day of the start of the administration was presumed to be 1; and Tx represents the volume of tumor for test compound administration groups.

T1 sequence (P35968 20-1356): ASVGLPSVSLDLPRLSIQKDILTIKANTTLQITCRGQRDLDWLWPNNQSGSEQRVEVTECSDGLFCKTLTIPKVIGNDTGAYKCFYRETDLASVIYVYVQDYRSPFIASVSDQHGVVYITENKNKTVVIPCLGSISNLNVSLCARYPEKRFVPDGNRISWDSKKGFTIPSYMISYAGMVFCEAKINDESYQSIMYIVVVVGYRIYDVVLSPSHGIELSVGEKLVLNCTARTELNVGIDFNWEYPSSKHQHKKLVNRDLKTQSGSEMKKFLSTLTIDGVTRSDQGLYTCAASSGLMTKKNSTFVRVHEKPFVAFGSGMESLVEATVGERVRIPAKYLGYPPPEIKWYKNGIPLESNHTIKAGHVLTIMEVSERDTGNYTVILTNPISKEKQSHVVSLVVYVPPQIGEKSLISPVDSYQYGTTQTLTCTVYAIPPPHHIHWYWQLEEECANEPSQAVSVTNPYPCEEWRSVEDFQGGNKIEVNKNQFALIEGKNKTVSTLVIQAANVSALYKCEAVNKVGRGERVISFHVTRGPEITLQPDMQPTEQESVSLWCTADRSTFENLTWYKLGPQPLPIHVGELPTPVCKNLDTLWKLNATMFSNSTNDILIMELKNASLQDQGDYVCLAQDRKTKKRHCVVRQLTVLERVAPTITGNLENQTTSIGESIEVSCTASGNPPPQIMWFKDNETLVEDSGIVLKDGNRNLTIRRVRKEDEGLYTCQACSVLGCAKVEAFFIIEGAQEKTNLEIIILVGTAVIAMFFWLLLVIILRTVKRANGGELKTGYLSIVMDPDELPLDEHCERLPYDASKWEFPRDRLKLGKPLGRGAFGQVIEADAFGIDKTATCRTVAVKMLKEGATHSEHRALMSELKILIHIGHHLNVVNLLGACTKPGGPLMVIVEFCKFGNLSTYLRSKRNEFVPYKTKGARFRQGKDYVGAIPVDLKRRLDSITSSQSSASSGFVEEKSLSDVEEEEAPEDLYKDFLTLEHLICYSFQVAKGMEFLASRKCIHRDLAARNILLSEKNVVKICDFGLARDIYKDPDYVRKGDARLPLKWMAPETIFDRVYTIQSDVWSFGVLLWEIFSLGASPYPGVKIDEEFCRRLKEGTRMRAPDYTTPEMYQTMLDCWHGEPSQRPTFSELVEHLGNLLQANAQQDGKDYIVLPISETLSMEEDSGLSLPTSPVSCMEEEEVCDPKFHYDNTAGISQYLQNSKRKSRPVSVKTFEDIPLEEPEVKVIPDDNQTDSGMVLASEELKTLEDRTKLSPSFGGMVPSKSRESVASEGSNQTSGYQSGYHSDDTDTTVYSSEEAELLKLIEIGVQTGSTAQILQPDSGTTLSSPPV

IC50 [1] [nM]	Compound	inhibition in vivo at 20 mg/kg [2] [%]	TGIR, % (tumor growth inhibition rate) [2] [%]
> 1000	CCN(CC)C(=O)Nc1ccc(Oc2ncnc3cc(OC)c(OC)cc23)cc1Cl [Example 116, N′-{2-Chloro-4-[(6,7-dimethoxy-4-quinazolinyl)oxy]phenyl}-N,N-diethylurea]	83	–
1.9	CCCNC(=O)Nc1ccc(Oc2ncnc3cc(OCCCCCN4CCOCC4)c(OC)cc23)cc1Cl [Example 124, N-[2-Chloro-4-({6-methoxy-7-[(5-morpholinopentyl)oxy]-4-quinazolinyl}oxy)phenyl]-N′-propylurea]	27	–
0.9	COc1cc2c(Oc3ccc(NC(=O)Nc4ccc(F)cc4F)c(Cl)c3)ncnc2cc1OCCCN1CCN(C)CC1 [Example 164, N-[2-chloro-4-(6-methoxy-7-{[3-(4-methylpiperazino)propoxy]-4-quinazolinyl}oxy)phenyl]-N′-(2,4-difluorophenyl)urea]	–	55
> 1000	CCCN(CCC)C(=O)Nc1ccc(Oc2ncnc3cc(OC)c(OC)cc23)cc1Cl [Example 113, N′-{2-Chloro-4-[(6,7-dimethoxy-4-quinazolinyl)oxy]phenyl}-N,N-dipropylurea]	61	–
> 1000	COc1cc2c(Oc3ccc(NC(=O)N(C)C)c(Cl)c3)ncnc2cc1OCc1ccncc1 [Example 180, N′-(2-Chloro-4-{[6-methoxy-7-(4-pyridylmethoxy)-4-quinazolinyl]oxy}phenyl)-N,N-dimethylurea]	45	–
0.5	CCNC(=O)Nc1ccc(Oc2ncnc3cc(OCCCN4CCCCC4)c(OC)cc23)cc1Cl [Example 185, N-(2-chloro-4-{[6-methoxy-7-(3-piperidinopropoxy)-4-quinazolinyl]oxy}phenyl)-N′-ethylurea]	59	–
2.2	COc1cc2c(Oc3ccc(NC(=O)Nc4ccc(F)cc4F)c(Cl)c3)ccnc2cc1OCCN1CCN(C)CC1 [Example 166, N-[2-Chloro-4-({6-methoxy-7-[2-(4-methylpiperazino)ethoxy]-4-guinolyl}oxy)phenyl]-N′-(2,4-difluorophenyl)urea]	27	–
3.5	CCCNC(=O)Nc1ccc(Oc2ccnc3cc(OCc4ccncc4)c(OC)cc23)cc1Cl [Example 143, N-(2-chloro-4-{[6-methoxy-7-(4-pyridylmethoxy)-4-quinolyl]oxy}phenyl)-N′-propylurea]	53	–
12.5	CCCNC(=O)Nc1ccc(Oc2ncnc3cc(OCCCO)c(OC)cc23)cc1Cl [Example 121, N-(2-Chloro-4-{(7-(3-hydroxypropoxy)-6-methoxy-4-quinazolinyl]oxy}phenyl)-N′-propylurea]	22	–
> 1000	COc1cc2c(Oc3ccc(NC(=O)N(C)C)c(Cl)c3)ncnc2cc1OCCN1CCOCC1 [Example 178, N′-(2-Chloro-4-{[6-methoxy-7-(2-morpholinoethoxy)-4-quinazolinyl]oxy}phenyl)-N,N-dimethylurea]	28	–
4.7	CCNC(=O)Nc1cc(C)c(Oc2ccnc3cc(OCCN4CCOCC4)c(OC)cc23)cc1C [Example 175, N-Ethyl-N′-(4-{[6-methoxy-7-(2-morpholinoethoxy)-4-guinolyl]oxy}-2,5-dimethylphenyl)urea]	17	–
3.7	COc1cc2c(Oc3ccc(NC(=O)Nc4ccc(F)cc4F)c(Cl)c3)ccnc2cc1OCc1cccnc1 [Example 169, N-(2-chloro-4-{[6-methoxy-7-(3-pyridylmethoxy)-4-quinolyl]oxy}phenyl)-N′-(2,4-difluorophenyl)urea]	55	–
2.1	COc1cc2c(Oc3ccc(NC(=O)Nc4ccc(F)cc4F)c(Cl)c3)ccnc2cc1OCCN(C)CCO [Example 167, N-{2-Chloro-4-[(7-{2-[(2-hydroxyethyl)-(methyl)amino]ethoxy}-6-methoxy-4-guinolyl)oxy]phenyl}-N′-(2,4-difluorophenyl)urea]	28	–
> 1000	CCCN(CC)C(=O)Nc1ccc(Oc2ncnc3cc(OC)c(OC)cc23)cc1Cl [Example 112, N′-{2-Chloro-4-[(6,7-dimethoxy-4-quinazolinyl)oxy]phenyl}-N-ethyl-N-propylurea]	81	–
> 1000	CCN(CC)C(=O)Nc1ccc(Oc2ncnc3cc(OCCn4ccnn4)c(OC)cc23)cc1Cl [Example 131, N′-[2-Chloro-4-({6-methoxy-7-[2-(1H-1,2,3-triazol-1-yl)ethoxy]-4-quinazolinyl}oxy)phenyl]-N,N-diethylurea]	31	–
> 1000	COc1cc2c(Oc3ccc(NC(=O)N(C)C)c(Cl)c3)ncnc2cc1OCCCN(C)CCO [Example 183, N′-{2-Chloro-4-[(7-{3-[(2-hydroxyethyl)-(methyl)amino]propoxy}-6-methoxy-4-quinazolinyl)oxy]-phenyl}-N,N-dimethylurea]	22	–
> 1000	CCN(CC)C(=O)Nc1ccc(Oc2ncnc3cc(OCc4ccncc4)c(OC)cc23)cc1Cl [Example 126, N′-(2-Chloro-4-{[6-methoxy-7-(4-pyridylmethoxy)-4-quinazolinyl]oxy}phenyl)-N,N-diethyl-urea]	52	–
15	CCCNC(=O)Nc1ccc(Oc2ccnc3cc(OCCN4CCN(C)CC4)c(OC)cc23)cc1Cl [Example 148, N-[2-chloro-4-(6-methoxy-7-{[2-(4-methylpiperazino)ethoxy]-4-quinolyl}oxy)phenyl]-N′-propylurea]	54	–
1.4	COc1cc2c(Oc3ccc(NC(=O)Nc4ccc(F)cc4F)c(Cl)c3)ncnc2cc1OCCCN1CCOCC1 [Example 163, N-(2-chloro-4-{[6-methoxy-7-(3-morpholinopropoxy)-4-quinazolinyl]oxy}phenyl)-N′-(2,4-difluorophenyl)urea]	52	–
> 1000	CCCNC(=O)N(C(C)=O)c1ccc(Oc2ncnc3cc(OC)c(OC)cc23)cc1Cl [Example 110, N-Acetyl-N-{2-chloro-4-[(6,7-dimethoxy-4-quinazolinyl)oxy]phenyl}-N′-propylurea]	26	–
2.6	CCCNC(=O)Nc1ccc(Oc2ncnc3cc(OCCCCCn4ccnn4)c(OC)cc23)cc1Cl [Example 125, N-{2-chloro-4-[(6-methoxy-7-{[5-(1H-1,2,3-triazol-1-yl)pentyl]oxy}-4-quinazolinyl)oxy]phenyl}-N′-propylurea]	30	–
3.9	COc1cc2c(Oc3ccc(NC(=O)Nc4ccc(F)cc4F)c(Cl)c3)ncnc2cc1OCc1ccncc1 [Example 161, N-(2-Chloro-4-{[6-methoxy-7-(4-pyridylmethoxy)-4-quinazolinyl]oxy}phenyl)-N′-(2,4-difluorophenyl)urea]	39	–
0.4	CCCNC(=O)Nc1ccc(Oc2ccnc3cc(OCCCN(C)CCO)c(OC)cc23)cc1Cl [Example 157, N-{2-chloro-4-[(7-{3-[(2-hydroxyethyl)-(methyl)amino]propoxy}-6-methoxy-4-quinolyl)oxy]-phenyl}-N′-propylurea]	44	–

Reference: patent US7169789B2 (Kirin Beer Kabushiki Kaisha, priority 1999, dated 2007)
